# From US9221834B2 (Merck Sharp & Dohme Corp., priority 2010, dated 2015)
# Molecular target: T1, recombinant CETP (rCETP) (Homo sapiens, UniProt P11597)
# T1 sequence (P11597 18-493): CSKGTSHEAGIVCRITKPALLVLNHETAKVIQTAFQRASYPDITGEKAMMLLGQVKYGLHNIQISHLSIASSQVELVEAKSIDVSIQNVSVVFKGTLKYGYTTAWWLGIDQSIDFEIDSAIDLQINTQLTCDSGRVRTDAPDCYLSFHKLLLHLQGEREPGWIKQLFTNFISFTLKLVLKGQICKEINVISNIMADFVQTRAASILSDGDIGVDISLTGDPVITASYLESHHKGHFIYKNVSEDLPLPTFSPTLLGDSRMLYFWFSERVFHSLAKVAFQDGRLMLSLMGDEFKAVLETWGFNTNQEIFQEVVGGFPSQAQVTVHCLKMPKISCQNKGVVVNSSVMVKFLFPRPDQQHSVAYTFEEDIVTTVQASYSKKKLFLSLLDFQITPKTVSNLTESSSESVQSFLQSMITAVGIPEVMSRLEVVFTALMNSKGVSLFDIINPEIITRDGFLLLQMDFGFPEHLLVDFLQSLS
# Test: RTA assay using recombinant CETP (2% RTA)
# Assay type: biochemical
# Details: RTA assay in 2% human serum; read-out: IC50
# Description: In Vitro Radioactive Assays of CETP-Catalyzed CE and TG Transfer (RTA Assay)
# Reagents and sources are: [3H] cholesteryl oleate (GE #TRK.886), [3H]
# Both assays measure the transfer of [3H] cholesteryl oleate or [3H]triolein from exogenous LDL to HDL.
# After a brief vortex, the solution is sonicated until clear and mixed with 20 mL of fresh human serum. The mixture is incubated overnight at 37° C. […] Once isolated the particles are dialyzed 3× in CETP buffer (50 mM Tris, pH 7.4, 100 mM NaCl, 1 mM EDTA). Human HDL is purchased from Intracel and used as the acceptor particles.
# Transfer assays are performed in a 96-well v-bottom polypropylene plate. […] 1 μL of each test compound diluted in DMSO is added to 47 μL of assay cocktail per well and incubated at 37° C. for 1 hour. To initiate the transfer reaction, 2 μL radiolabeled LDL is added. After an additional 60 min of incubation at 37° C., the transfer action is terminated by precipitation of LDL with an equal volume of 20% W/V PEG 8000. The plates are centrifuged at 2000 rpm for 30 minutes at 4° C. A 40 μL aliquot of the HDL-containing supernatant is transferred to a Packard Optiplate with 200 μL of MicroScint 20. After mixing, plates are counted by liquid scintillation. Counts present in the supernatant for blanks (wells containing only HDL acceptor, CETP buffer and DMSO) are subtracted from those containing test compounds and used to correct for non-specific transfer.
# Comparison of the counts of samples with inhibitors to an uninhibited (DMSO only) positive control yield a percent inhibition. A plot of percent inhibition vs. log of inhibitor concentration, fit to a Sigmoidal 4 parameter equation is used to calculate IC50.
row,Compound,IC50 [nM]
1,COC(=O)[C@@H]1CC[C@@H](c2ccc(OC)c(-c3c(C)cc(N4CCC4)nc3CN3C(=O)O[C@H](c4cc(C(F)(F)F)cc(C(F)(F)F)c4)[C@@H]3C)c2)C1 (mixture of isomers) [Example 216],9
2,COc1ccc(C2CCC(O)C2)cc1-c1ccc(N2CCC2)nc1CN1C(=O)O[C@H](c2cc(C(F)(F)F)cc(C(F)(F)F)c2)[C@@H]1C (mixture of isomers) [Example 262],3
3,COc1ccc(C2CCC(O)C2)cc1-c1ccc(N2CCC2)nc1CN1C(=O)O[C@H](c2cc(C(F)(F)F)cc(C(F)(F)F)c2)[C@@H]1C (mixture of isomers) [Example 263],5
4,COC(=O)[C@@H]1CC[C@@H](c2ccc(OC)c(-c3ccc(N4CCC4)nc3CN3C(=O)O[C@H](c4cc(C(F)(F)F)cc(C(F)(F)F)c4)[C@@H]3C)c2)C1 (racemic) [Example 214],8
5,"COC(=O)CCc1ccc(OC)c(-c2c(C)cc(N3CCC3)nc2CN2C(=O)O[C@H](c3cc(C(F)(F)F)cc(C(F)(F)F)c3)[C@@H]2C)c1 (single isomer, unassigned) [Example 39]",3
6,"COc1ccc([C@H]2C[C@@H](C(=O)OC)C2)cc1-c1c(C)cc(N2CCC2)nc1CN1C(=O)O[C@H](c2cc(C(F)(F)F)cc(C(F)(F)F)c2)[C@@H]1C (single isomer, unassigned) [Example 41]",4
7,"COc1ccc([C@H]2C[C@@H](C(=O)OC)C2)cc1-c1c(C)cc(N2CCC2)nc1CN1C(=O)O[C@H](c2cc(C(F)(F)F)cc(C(F)(F)F)c2)[C@@H]1C (single isomer, unassigned) [Example 42]",102
8,"COC(=O)[C@H]1CC[C@@H](c2ccc(OC)c(-c3ccc(N4CCC4)nc3CN3C(=O)O[C@H](c4cc(C(F)(F)F)cc(C(F)(F)F)c4)[C@@H]3C)c2)C1 (single isomer, unassigned) [Example 217]",19
9,"COC(=O)[C@H]1CC[C@@H](c2ccc(OC)c(-c3ccc(N4CCC4)nc3CN3C(=O)O[C@H](c4cc(C(F)(F)F)cc(C(F)(F)F)c4)[C@@H]3C)c2)C1 (single isomer, unassigned) [Example 218]",12
10,"COc1ccc([C@@H]2CC[C@@H](C(=O)O)C2)cc1-c1ccc(N2CCC2)nc1CN1C(=O)O[C@H](c2cc(C(F)(F)F)cc(C(F)(F)F)c2)[C@@H]1C (single isomer, unassigned) [Example 238]",5
11,"COc1ccc([C@@H]2CC[C@@H](C(=O)O)C2)cc1-c1ccc(N2CCC2)nc1CN1C(=O)O[C@H](c2cc(C(F)(F)F)cc(C(F)(F)F)c2)[C@@H]1C (single isomer, unassigned) [Example 239]",7
12,"COc1ccc([C@@H]2CC[C@H](C(=O)O)C2)cc1-c1ccc(N2CCC2)nc1CN1C(=O)O[C@H](c2cc(C(F)(F)F)cc(C(F)(F)F)c2)[C@@H]1C (single isomer, unassigned) [Example 245]",9
13,"COc1ccc([C@@H]2CC[C@H](C(=O)O)C2)cc1-c1ccc(N2CCC2)nc1CN1C(=O)O[C@H](c2cc(C(F)(F)F)cc(C(F)(F)F)c2)[C@@H]1C (single isomer, unassigned) [Example 246]",12
14,"COC(=O)CCc1ccc(OC)c(-c2ccc(N3CCC3)nc2CN2C(=O)O[C@H](c3cc(C(F)(F)F)cc(C(F)(F)F)c3)[C@@H]2C)c1 [Example 1, Methyl 3-{3-[6-azetidin-1-yl-2-({(4S,5R)-5-[3,5-bis(trifluoromethyl)phenyl]-4-methyl-2-oxo-1,3-oxazolidin-3-yl}methy)pyridin-3-yl]-4-methoxyphenyl}propanoate]",8
15,COC(=O)CCc1ccc(OC)c(-c2ccc(N3CCCC3)nc2CN2C(=O)O[C@H](c3cc(C(F)(F)F)cc(C(F)(F)F)c3)[C@@H]2C)c1 [Example 2],33
16,CCOC(=O)[C@@H]1C[C@H]1c1ccc(OC)c(-c2ccc(N3CCC3)nc2CN2C(=O)O[C@H](c3cc(C(F)(F)F)cc(C(F)(F)F)c3)[C@@H]2C)c1 [Example 3],6
17,CCOC(=O)[C@H]1C[C@@H]1c1ccc(OC)c(-c2ccc(N3CCC3)nc2CN2C(=O)O[C@H](c3cc(C(F)(F)F)cc(C(F)(F)F)c3)[C@@H]2C)c1 [Example 4],6
18,COC(=O)CCc1ccc(Cl)c(-c2ccc(N3CCC3)nc2CN2C(=O)O[C@H](c3cc(C(F)(F)F)cc(C(F)(F)F)c3)[C@@H]2C)c1 [Example 5],7
19,CCOC(=O)CC1CCc2cc(OC)c(-c3ccc(N4CCC4)nc3CN3C(=O)O[C@H](c4cc(C(F)(F)F)cc(C(F)(F)F)c4)[C@@H]3C)cc21 (stereo partly drawn) [Example 6],7
20,COC(=O)CC(C)(C)c1ccc(OC)c(-c2ccc(N3CCC3)nc2CN2C(=O)O[C@H](c3cc(C(F)(F)F)cc(C(F)(F)F)c3)[C@@H]2C)c1 [Example 7],12

row,Compound,IC50 [nM]
1,COC(=O)Cc1ccc(OC)c(-c2ccc(N3CCC3)nc2CN2C(=O)O[C@H](c3cc(C(F)(F)F)cc(C(F)(F)F)c3)[C@@H]2C)c1 [Example 8],12
2,COc1ccc([C@H]2CC[C@H](C(=O)OC)CC2)cc1-c1ccc(N2CCC2)nc1CN1C(=O)O[C@H](c2cc(C(F)(F)F)cc(C(F)(F)F)c2)[C@@H]1C [Example 9],15
3,COc1ccc(CC(C)(C)C(=O)OC(C)(C)C)cc1-c1ccc(N2CCC2)nc1CN1C(=O)O[C@H](c2cc(C(F)(F)F)cc(C(F)(F)F)c2)[C@@H]1C [Example 10],63
4,COC(=O)CCc1ccc(OC)c(-c2ccc(N3CCC3)nc2CN2C(=O)O[C@H](c3ccc(F)c(F)c3)[C@@H]2C)c1 [Example 11],186
5,COC(=O)CC(C)(C)c1ccc(OC)c(-c2ccc(N3CCC3)nc2CN2C(=O)O[C@H](c3ccc(F)c(F)c3)[C@@H]2C)c1 [Example 12],227
6,CCOC(=O)[C@@H]1C[C@H]1c1ccc(OC)c(-c2ccc(N3CCC3)nc2CN2C(=O)O[C@H](c3ccc(F)c(F)c3)[C@@H]2C)c1 [Example 13],498
7,COC(=O)CCc1ccc(OC)c(-c2ccc(N3CCC3)nc2CN2C(=O)O[C@H](c3cc(F)cc(F)c3)[C@@H]2C)c1 [Example 14],87
8,COC(=O)CC(C)(C)c1ccc(OC)c(-c2ccc(N3CCC3)nc2CN2C(=O)O[C@H](c3cc(F)cc(F)c3)[C@@H]2C)c1 [Example 15],159
9,CCOC(=O)[C@@H]1C[C@H]1c1ccc(OC)c(-c2ccc(N3CCC3)nc2CN2C(=O)O[C@H](c3cc(F)cc(F)c3)[C@@H]2C)c1 [Example 16],94
10,CCOC(=O)[C@H]1C[C@@H]1c1ccc(OC)c(-c2ccc(N3CCC3)nc2CN2C(=O)O[C@H](c3cc(F)cc(F)c3)[C@@H]2C)c1 [Example 17],181
11,CCOC(=O)[C@@H]1C[C@@H]1c1ccc(OC)c(-c2ccc(N3CCC3)nc2CN2C(=O)O[C@H](c3cc(F)cc(F)c3)[C@@H]2C)c1 [Example 18],62
12,COc1ccc([C@H]2CC[C@H](C(=O)OC)CC2)cc1-c1ccc(N2CCC2)nc1CN1C(=O)O[C@H](c2cc(F)cc(F)c2)[C@@H]1C [Example 19],381
13,CCOC(=O)C[C@@H]1CCc2cc(OC)c(-c3ccc(N4CCC4)nc3CN3C(=O)O[C@H](c4cc(F)cc(F)c4)[C@@H]3C)cc21 [Example 20],96
14,COC(=O)c1ccc(-c2cc(-c3ccc(N4CCC4)nc3CN3C(=O)O[C@H](c4cc(F)cc(F)c4)[C@@H]3C)c(OC)cc2F)c(C)c1 [Example 21],22
15,CCOC(=O)[C@@H]1C[C@H]1c1ccc(CC)c(-c2ccc(N3CCC3)nc2CN2C(=O)O[C@H](c3cc(C(F)(F)F)cc(C(F)(F)F)c3)[C@@H]2C)c1 [Example 22],11
16,COc1ccc([C@H]2C[C@@H](C(=O)OC)C2)cc1-c1ccc(N2CCC2)nc1CN1C(=O)O[C@H](c2cc(C(F)(F)F)cc(C(F)(F)F)c2)[C@@H]1C [Example 23],18
17,COc1ccc([C@H]2C[C@H](C(=O)OC)C2)cc1-c1ccc(N2CCC2)nc1CN1C(=O)O[C@H](c2cc(C(F)(F)F)cc(C(F)(F)F)c2)[C@@H]1C [Example 24],2
18,COC(=O)C[C@H]1C[C@@H](c2ccc(OC)c(-c3ccc(N4CCC4)nc3CN3C(=O)O[C@H](c4cc(C(F)(F)F)cc(C(F)(F)F)c4)[C@@H]3C)c2)C1 [Example 25],14
19,COC(=O)C[C@H]1C[C@H](c2ccc(OC)c(-c3ccc(N4CCC4)nc3CN3C(=O)O[C@H](c4cc(C(F)(F)F)cc(C(F)(F)F)c4)[C@@H]3C)c2)C1 [Example 26],7
